# Where “and” joins values, the source holds several entries; their conditions need not be identical. Identical values can stand only once. Counter-ions that a name gives are not always drawn.
# Experiments:
# Adrenergic β2 = biological target: T1, Adrenergic β2 (Homo sapiens, UniProt P07550); test: Adrenergic β2 mediated cAMP production in H292 cells (AlphaScreen); format: cell-based; details: Intrinsic Activity as a fraction relative to the maximum activity of formoterol
# T1 construct: Adherent H292 cells were removed from tissue culture flasks; endogenous in cells; host or cells: H292 cells
# T1 sequence (P07550 whole entry): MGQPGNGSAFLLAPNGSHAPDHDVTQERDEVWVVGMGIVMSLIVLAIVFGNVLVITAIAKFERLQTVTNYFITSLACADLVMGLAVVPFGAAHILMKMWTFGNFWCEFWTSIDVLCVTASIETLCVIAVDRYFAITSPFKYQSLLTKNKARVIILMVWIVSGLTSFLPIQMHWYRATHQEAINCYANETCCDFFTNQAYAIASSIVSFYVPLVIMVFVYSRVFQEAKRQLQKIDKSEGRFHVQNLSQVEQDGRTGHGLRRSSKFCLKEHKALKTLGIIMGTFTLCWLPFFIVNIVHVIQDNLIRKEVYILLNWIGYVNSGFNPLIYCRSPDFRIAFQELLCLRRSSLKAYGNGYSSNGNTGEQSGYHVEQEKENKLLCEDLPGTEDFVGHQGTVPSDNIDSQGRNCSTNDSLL
# Protocol: Adrenergic β2 Mediated cAMP Production
# H292 cells were grown in 225 cm2 flasks incubator at 37° C., 5% CO2 in RPMI medium containing, 10% (v/v) FBS (foetal bovine serum) and 2 mM L-glutamine.
# Adherent H292 cells were removed from tissue culture flasks by treatment with Accutase™ cell detachment solution for 15 minutes. Flasks were incubated for 15 minutes in a humidified incubator at 37° C., 5% CO2. Detached cells were re-suspended in RPMI media (containing 10% (v/v) FBS and 2 mM L-glutamine) at 0.05×10^6 cells per mL. 5000 cells in 100 μL were added to each well of a tissue-culture-treated 96-well plate and the cells incubated overnight in a humidified incubator at 37° C., 5% CO2. The culture media was removed and cells were washed twice with 100 μL assay buffer and replaced with 50 μL assay buffer (HBSS solution containing 10 mM HEPES pH7.4 and 5 mM glucose). Cells were rested at room temperature for 20 minutes after which time 25 μL of rolipram (1.2 mM made up in assay buffer containing 2.4% (v/v) dimethylsulphoxide) was added. Cells were incubated with rolipram for 10 minutes after which time Compound A was added and the cells were incubated for 60 minutes at room temperature. The final rolipram concentration in the assay was 300 μM and final vehicle concentration was 1.6% (v/v) dimethylsulphoxide. The reaction was stopped by removing supernatants, washing once with 100 μL assay buffer and replacing with 50 μL lysis buffer. The cell monolayer was frozen at −80° C. for 30 minutes (or overnight).
# The concentration of cAMP (cyclic adenosine monophosphate) in the cell lysate was determined using AlphaScreen™ methodology. […] The AlphaScreen™ signal was measured using an EnVision spectrophotometer (Perkin-Elmer Inc.) with the recommended manufacturer's settings. cAMP concentrations were determined by reference to a calibration curve determined in the same experiment using standard cAMP concentrations. […] Intrinsic Activity was expressed as a fraction relative to the maximum activity determined for formoterol in each experiment.
# [1] = biological target: T2, recombinant human adrenergic beta 1 receptors (Homo sapiens, UniProt P08588); test: Adrenergic β1 selectivity binding assay ([125I]-Iodocyanopindolol); details: inhibition of [125I]-Iodocyanopindolol binding; read-out: β1 bind p IC50
# T2 construct: purchased Euroscreen
# T2 sequence (P08588 whole entry): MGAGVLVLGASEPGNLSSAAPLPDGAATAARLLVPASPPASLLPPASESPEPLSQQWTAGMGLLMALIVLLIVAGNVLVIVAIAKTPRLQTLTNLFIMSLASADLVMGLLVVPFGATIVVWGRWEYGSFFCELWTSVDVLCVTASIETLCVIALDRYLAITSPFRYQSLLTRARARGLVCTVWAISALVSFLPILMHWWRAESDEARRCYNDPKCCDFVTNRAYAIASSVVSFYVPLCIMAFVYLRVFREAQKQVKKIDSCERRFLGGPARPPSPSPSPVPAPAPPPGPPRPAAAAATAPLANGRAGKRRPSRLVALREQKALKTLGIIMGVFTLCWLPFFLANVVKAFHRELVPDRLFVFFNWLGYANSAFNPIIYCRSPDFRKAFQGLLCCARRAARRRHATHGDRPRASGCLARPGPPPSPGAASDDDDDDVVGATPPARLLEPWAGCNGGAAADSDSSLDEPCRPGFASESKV
# Protocol: Membranes containing recombinant human adrenergic beta 1 receptors were obtained from Euroscreen. These were diluted in Assay Buffer (50 mM HEPES, 1 mM EDTA, 120 mM NaCl, 0.1% gelatin, pH 7.4) to provide a final concentration of membranes that gave a clear window between maximum and minimum specific binding.
# Assays were performed in U-bottomed 96-well polypropylene plates. […] For each assay plate 8 replicates were obtained for [^125I]-Iodocyanopindolol binding in the presence of 10 μL vehicle (10% (v/v) DMSO in Assay Buffer; defining maximum binding) or 10 μL Propranolol (10 μM final concentration; defining non-specific binding (NSB)). Membranes were then added to achieve a final volume of 100 μL. […] Five washes with 250 μL wash buffer (50 mM HEPES, 1 mM EDTA, 120 mM NaCl, pH 7.4) were performed at 4° C. to remove unbound radioactivity. The plates were dried then sealed from underneath using Packard plate sealers and MicroScint-O (50 μL) was added to each well. The plates were sealed (TopSeal A) and filter-bound radioactivity was measured with a scintillation counter (TopCount, Packard BioScience) using a 3-minute counting protocol.
# Total specific binding (B0) was determined by subtracting the mean NSB from the mean maximum binding. NSB values were also subtracted from values from all other wells.
# [2] = tested on: Methacholine-induced bronchoconstriction in the guinea pig; test: Lung function in anaesthetised guinea pigs: methacholine-induced bronchoconstriction; format: in vivo; details: 2 hours prior to methacholine, after 5 μg/kg methacholine i.v.
# Protocol: Evaluation of Lung Function in Anaesthetised Guinea Pigs.
# Male Dunkin-Hartley guinea pigs (300-600 g) were weighed and dosed with vehicle (0.05M phosphate, 0.1% Tween 80, 0.6% saline, pH 6) or compound via the intratracheal route under recoverable gaseous anaesthesia (5% halothane in oxygen). Animals were dosed with compound or vehicle two hours prior to the administration of methacholine. Guinea pigs were anaesthetised with pentobarbitone (1 mL/kg of 60 mg/mL solution i.p.) approximately 30 minutes prior to the first bronchoconstrictor administration. The trachea was cannulated and the animal ventilated using a constant volume respiratory pump (Harvard Rodent Ventilator model 683) at a rate of 60 breath/min and a tidal volume of 5 mL/kg. A jugular vein was cannulated for the administration of methacholine or maintenance anaesthetic (0.1 mL of pentobarbitone solution, 60 mg/mL, as required).
# The animals were transferred to a Flexivent System (SCIREQ, Montreal, Canada) in order to measure airway resistance. The animals were ventilated (quasi-sinusoidal ventilation pattern) at 60 breaths/min at a tidal volume of 5 mL/kg. A positive end expiratory pressure of 2-3 cm H2O was applied. Respiratory resistance was measured using the Flexivent “snapshot” facility (1 second duration, 1 Hz frequency). Once a stable baseline resistance value had been obtained the animals were given methacholine in ascending doses (0.5, 1, 2, 3 and 5 μg/kg, i.v) at approximately 4-minute intervals via the jugular catheter. After each administration of bronchoconstrictor the peak resistance value was recorded. Guinea pigs were euthanised with approximately 1.0 mL pentobarbitone sodium (Euthatal) intravenously after the completion of the lung function measurements.
# Percentage bronchoprotection produced by a compound was calculated at each dose of brochoconstrictor as follows:
# Where % change Rveh is the mean of the maximum percentage change in airway resistance in the vehicle treated group. The results reported were measured after 5 μg/kg methacholine and were expressed as percentage bronchoprotection (mean±s.e.mean).
# Guinea pigs were dosed with vehicle, 3 and 27 μg/kg compound (BA1), 0.2 μg/kg compound (MA2) (Crystalline Form A) or a combination of 3 μg/kg Compound (BA1) and 0.2 μg/kg Compound (MA2) via the intratracheal route. Administration of increasing intravenous doses of methacholine (0.5, 1, 2, 3 and 5 μg/kg) evoked dose-related bronchoconstriction in the vehicle treated animals ranging from 13±2.6% at 0.5 μg/kg to 2530±280% at 5 μg/kg two hours after vehicle administration (n=9).
# […] Administration of increasing intravenous doses of methacholine (0.5, 1, 2, 3 and 5 μg/kg) evoked dose-related bronchoconstriction in the vehicle treated animals ranging from 14±2.6% at 0.5 μg/kg to 2240±269% at 5 μg/kg two hours after vehicle administration (n=10).
# [3] = biological target: T3, recombinant human α1D receptor (Homo sapiens, UniProt P25100); test: Adrenergic α1D selectivity binding assay ([3H]-prazosin); details: inhibition of [3H]-prazosin binding; read-out: α1 bind pIC50 (converted)
# T3 construct: expressed in transfected cells; host or cells: HEK293
# T3 sequence (P25100 1-572): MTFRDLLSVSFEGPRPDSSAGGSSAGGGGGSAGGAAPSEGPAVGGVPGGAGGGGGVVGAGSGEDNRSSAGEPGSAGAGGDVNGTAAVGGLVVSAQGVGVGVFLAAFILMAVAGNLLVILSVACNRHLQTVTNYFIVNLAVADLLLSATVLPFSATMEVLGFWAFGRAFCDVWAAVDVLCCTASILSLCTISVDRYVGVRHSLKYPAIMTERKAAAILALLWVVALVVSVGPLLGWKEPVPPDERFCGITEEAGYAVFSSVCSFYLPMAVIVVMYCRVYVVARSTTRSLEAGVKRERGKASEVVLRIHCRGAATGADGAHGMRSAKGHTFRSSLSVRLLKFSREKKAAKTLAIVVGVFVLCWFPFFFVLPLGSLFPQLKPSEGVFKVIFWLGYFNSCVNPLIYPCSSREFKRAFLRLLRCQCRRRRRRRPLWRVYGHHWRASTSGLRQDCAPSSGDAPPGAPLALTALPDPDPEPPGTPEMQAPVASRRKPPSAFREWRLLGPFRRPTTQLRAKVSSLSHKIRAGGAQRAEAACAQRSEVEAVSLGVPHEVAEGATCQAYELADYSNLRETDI
# Protocol: Membranes were prepared from human embryonic kidney 293 (HEK293) cells expressing recombinant human α1D receptor. These were diluted in Assay Buffer (50 mM HEPES, 1 mM EDTA, 0.1% gelatin, pH 7.4) to provide a final concentration of membranes that gave a clear window between maximum and minimum specific binding.
# Assays were performed in U-bottomed 96-well polypropylene plates. 10 μL [^3H]-prazosin (0.3 nM final concentration) and 10 μL of Compound A (10× final concentration) were added to each test well. For each assay plate 8 replicates were obtained for [^3H]-prazosin binding in the presence of 10 μL vehicle (10% (v/v) DMSO in Assay Buffer; defining maximum binding) or 10 μL BMY7378 (10 μM final concentration; defining non-specific binding (NSB)). Membranes were then added to achieve a final volume of 100 μL. […] Five washes with 250 μL wash buffer (50 mM HEPES, 1 mM EDTA, pH 7.4) were performed at 4° C. to remove unbound radioactivity. […] The plates were sealed (TopSeal A) and filter-bound radioactivity was measured with a scintillation counter (TopCount, Packard BioScierice) using a 3-minute counting protocol.
# Total specific binding (B0) was determined by subtracting the mean NSB from the mean maximum binding. […]
# [4] = Deaggregation properties of micronised Salt Form A (Fine Particle Fraction); format: physicochemical; details: micronised material, across 0-75% RH
# Text: ‘Salt Form A’ was Micronised in a 50 mm jet mill, with ejector pressure 5 bar and milling pressure 1.5-2 bar, giving (90% yield). Particle size of the micronised material as determined by Malvern Laser Diffraction with dry powder feeder was d(0.1) 0.77 μm: d(0.5), 1.45μ: d(0.9): 2.65 μm.
# [5] = Gravimetric vapour sorption (GVS); format: physicochemical; details: at 80% RH, ambient temperature
# Protocol: GVS profiles were measured using a Dynamic Vapour Sorption DVS-1 instrument. The solid sample ca. 1-5 mg was placed into a glass vessel and the weight of the sample was recorded during a dual cycle step method (40 to 90 to 0 to 90 to 0% relative humidity (RH), in steps of 10% RH). GVS profiles were recorded at ambient temperature.
# [6] = BA1 27 μg/kg intratracheal, dihydrobromide
smiles,measurement,setting,value
"CCN(CC)CCN(CCNCCc1ccc(O)c2[nH]c(=O)sc12)C(=O)CCOCCc1cccc2ccccc12 [BA1, N-[2-(Diethylamino)ethyl]-N-(2-{[2-(4-hydroxy-2-oxo-2,3-dihydro-1,3-benzothiazol-7-yl)ethyl]amino}ethyl)-3-[2-(1-naphthyl)ethoxy]propanamide dihydrobromide]",β2 Int Act,Adrenergic β2,0.8
same,IC50,[1],> 10 µM
same,increase in resistance,[2]; BA1 1 μg/kg intratracheal,1380±333%
same,inhibition of methacholine-induced bronchoconstriction,[2]; BA1 1 μg/kg intratracheal,38%
same,increase in resistance,[2]; BA1 3 μg/kg intratracheal,2090±239%
same,inhibition of methacholine-induced bronchoconstriction,[2]; BA1 3 μg/kg intratracheal,17%
same,increase in resistance,[2]; [6],470±221% and 242±69%
same,inhibition of methacholine-induced bronchoconstriction,[2]; [6],81% and 89%
"CCN(CC)CCN(CCNCCc1ccc(O)c2[nH]c(=O)sc12)C(=O)CCOCCc1cccc(Cl)c1 [BA2, N-[2-(Diethylamino)ethyl]-N-(2-{[2-(4-hydroxy-2-oxo-2,3-dihydro-1,3-benzothiazol-7-yl)ethyl]amino}ethyl)-3-[2-(3-chlorophenyl)ethoxy]propanamide dihydrobromide]",β2 Int Act,Adrenergic β2,0.7
same,IC50,[1],> 10 µM
same,IC50,[3],> 0.794 µM
"O=c1[nH]c2c(O)ccc([C@@H](O)CNCCSCCCNCCc3ccccc3Cl)c2s1 [BA3, 7-[(1R)-2-({2-[(3-{[2-(2-Chlorophenyl)ethyl]amino}propyl)thio]ethyl}amino)-1-hydroxyethyl]-4-hydroxy-1,3-benzothiazol-2(3H)-one dihydrobromide]",β2 Int Act,Adrenergic β2,0.8
"C[N+](C)(CCOCc1ccc(Cl)cc1)Cc1cnc([C@](O)(c2ccccc2)C2CCCCC2)o1 [MA11 Salt Form A, [2-(4-chloro-benzyloxy)-ethyl]-[2-((R)-cyclohexyl-hydroxy-phenyl-methyl)-oxazol-5-ylmethyl]-dimethyl-ammonium hemi-naphthalene-1,5-disulfonate]",Fine Particle Fraction (FPF),[4],> 60%
same,GVS weight increase,[5],less than 0.5 % w/w

# Source: US20110046191A1, “COMBINATION OF A MUSCARINIC RECEPTOR ANTAGONIST AND A BETA-2-ADRENOCEPTOR AGONIST” (ARGENTA DISCOVERY LTD., priority 2007, published 2011)
